Test results published in US8816085B2 (Takeda GmbH, priority 2009, dated 2014).

biological target: T1, PDE5A1 (human PDE5 from platelets) (Homo sapiens, UniProt O76074); experiment: Inhibition of type 5 phosphodiesterase (PDE5) activity, modified SPA test; format: biochemical; settings: PDE5-containing human platelet lysate, 0.5 μM cGMP, value classes, read-out: PDE5A1 inhibitory values [measured as −logIC50 (mol/l)] (converted)
T1 construct: from tissue; host or cells: platelets from fresh blood of human donors (10,000 g supernatant of sonified platelets)
Method in brief: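 Enzyme source: human platelet lysate (10,000 g supernatant), with 1 μM motapizone and 10 nM PDE2 inhibitor present. SPA format in 20 mM Tris pH 7.4, 5 mM Mg2+, 0.5 μM cGMP with [3H]cGMP tracer; 5 min preincubation at 37 °C, 15 min reaction, stopped with IBMX-containing beads. IC50 by non-linear regression.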

IC50 [nM]	Structure (SMILES)
< 1	COc1ccc(-c2ccnc3c(C(=O)N[C@H]4CC[C@H](NC(=O)[C@H](C)O)CC4)c(C)[nH]c23)c(OCC2CC2)c1 [Example F23, 7-[2-(Cyclopropylmethoxy)-4-methoxyphenyl]-N-(trans-4-{[(2S)-2-hydroxypropanoyl]amino}cyclohexyl)-2-methyl-1H-pyrrolo[3,2-b]pyridine-3-carboxamide]
< 1	COc1ccc(-c2ccnc3c(C(=O)N[C@H]4CC[C@@H](NC(=O)CO)CC4)c(C)[nH]c23)c(OCC2CC2)c1 [Example F24, 7-[2-(Cyclopropylmethoxy)-4-methoxyphenyl]-N-{cis-4-[(hydroxyacetyl)amino]cyclohexyl}-2-methyl-1H-pyrrolo[3,2-b]pyridine-3-carboxamide]
< 1	COc1ccc(-c2ccnc3c(C(=O)N[C@H]4CC[C@@H](NC(=O)[C@H](C)O)CC4)c(C)[nH]c23)c(OCC2CC2)c1 [Example F25, 7-[2-(Cyclopropylmethoxy)-4-methoxyphenyl]-N-(cis-4-{[(2S)-2-hydroxypropanoyl]amino}cyclohexyl)-2-methyl-1H-pyrrolo[3,2-b]pyridine-3-carboxamide]
1 to 10	COc1ccc(OCC2CC2)c(-c2ccnc3c(C(=O)NC4CCN(C(=O)CO)CC4)c(C)[nH]c23)c1 [Example F26, 7-[2-(Cyclopropylmethoxy)-5-methoxyphenyl]-N-[1-(hydroxyacetyl)piperidin-4-yl]-2-methyl-1H-pyrrolo[3,2-b]pyridine-3-carboxamide]
< 1	COc1ccc(OCC2CC2)c(-c2ccnc3c(C(=O)NC4CCN(C(=O)[C@H](C)O)CC4)c(C)[nH]c23)c1 [Example F27, 7-[2-(Cyclopropylmethoxy)-5-methoxyphenyl]-N-{1-[(2S)-2-hydroxypropanoyl]piperidin-4-yl}-2-methyl-1H-pyrrolo[3,2-b]pyridine-3-carboxamide]
< 1	COc1ccc(OCC2CC2)c(-c2ccnc3c(C(=O)N[C@H]4CC[C@H](NC(=O)CO)CC4)c(C)[nH]c23)c1 [Example F28, 7-[2-(Cyclopropylmethoxy)-5-methoxyphenyl]-N-{trans-4-[(hydroxyacetyl)amino]cyclohexyl}-2-methyl-1H-pyrrolo[3,2-b]pyridine-3-carboxamide]
< 1	COc1ccc(OCC2CC2)c(-c2ccnc3c(C(=O)N[C@H]4CC[C@H](NC(=O)[C@H](C)O)CC4)c(C)[nH]c23)c1 [Example F29, 7-[2-(Cyclopropylmethoxy)-5-methoxyphenyl]-N-(trans-4-{[abs.(2S)-2-hydroxypropanoyl]amino}cyclohexyl)-2-methyl-1H-pyrrolo[3,2-b]pyridine-3-carboxamide]
< 1	COc1ccc(OCC2CC2)c(-c2ccnc3c(C(=O)N[C@H]4CC[C@@H](NC(=O)CO)CC4)c(C)[nH]c23)c1 [Example F30, 7-[2-(Cyclopropylmethoxy)-5-methoxyphenyl]-N-{cis-4-[(hydroxyacetyl)amino]cyclohexyl}-2-methyl-1H-pyrrolo[3,2-b]pyridine-3-carboxamide]
< 1	COc1ccc(OCC2CC2)c(-c2ccnc3c(C(=O)N[C@H]4CC[C@@H](NC(=O)[C@H](C)O)CC4)c(C)[nH]c23)c1 [Example F31, 7-[2-(Cyclopropylmethoxy)-5-methoxyphenyl]-N-(cis-4-{[(2S)-2-hydroxypropanoyl]amino}cyclohexyl)-2-methyl-1H-pyrrolo[3,2-b]pyridine-3-carboxamide]
1 to 10	Cc1ccc(OCC2CC2)c(-c2ccnc3c(C(=O)NC4CCN(C(=O)CO)CC4)c(C)[nH]c23)c1 [Example F34, 7-[2-(Cyclopropylmethoxy)-5-methylphenyl]-N-[1-(hydroxyacetyl)piperidin-4-yl]-2-methyl-1H-pyrrolo[3,2-b]pyridine-3-carboxamide]
1 to 10	Cc1ccc(OCC2CC2)c(-c2ccnc3c(C(=O)NC4CCN(C(=O)[C@H](C)O)CC4)c(C)[nH]c23)c1 [Example F35, 7-[2-(cyclopropylmethoxy)-5-methylphenyl]-N-{1-[abs.(2S)-2-hydroxypropanoyl]piperidin-4-yl}-2-methyl-1H-pyrrolo[3,2-b]pyridine-3-carboxamide]
1 to 10	Cc1ccc(OCC2CC2)c(-c2ccnc3c(C(=O)N[C@H]4CC[C@H](NC(=O)CO)CC4)c(C)[nH]c23)c1 [Example F36, 7-[2-(Cyclopropylmethoxy)-5-methylphenyl]-N-{trans-4-[(hydroxyacetyl)amino]cyclohexyl}-2-methyl-1H-pyrrolo[3,2-b]pyridine-3-carboxamide]
1 to 10	Cc1ccc(OCC2CC2)c(-c2ccnc3c(C(=O)N[C@H]4CC[C@H](NC(=O)[C@H](C)O)CC4)c(C)[nH]c23)c1 [Example F37, 7-[2-(Cyclopropylmethoxy)-5-methylphenyl]-N-(trans-4-{[(2S)-2-hydroxypropanoyl]amino}cyclohexyl)-2-methyl-1H-pyrrolo[3,2-b]pyridine-3-carboxamide]
1 to 10	Cc1ccc(OCC2CC2)c(-c2ccnc3c(C(=O)N[C@H]4CC[C@@H](NC(=O)CO)CC4)c(C)[nH]c23)c1 [Example F38, 7-[2-(Cyclopropylmethoxy)-5-methylphenyl]-N-{cis-4-[(hydroxyacetyl)amino]cyclohexyl}-2-methyl-1H-pyrrolo[3,2-b]pyridine-3-carboxamide]
1 to 10	Cc1ccc(OCC2CC2)c(-c2ccnc3c(C(=O)N[C@H]4CC[C@@H](NC(=O)[C@H](C)O)CC4)c(C)[nH]c23)c1 [Example F39, 7-[2-(Cyclopropylmethoxy)-5-methylphenyl]-N-(cis-4-{[(2S)-2-hydroxypropanoyl]amino}cyclohexyl)-2-methyl-1H-pyrrolo[3,2-b]pyridine-3-carboxamide]
< 1	COc1cc(-c2ccnc3c(C(=O)NC4CCN(C(=O)CO)CC4)c(C)[nH]c23)c(OCC2CC2)cc1F [Example F40, 7-[2-(Cyclopropylmethoxy)-4-fluoro-5-methoxyphenyl]-N-[1-(hydroxyacetyl)piperidin-4-yl]-2-methyl-1H-pyrrolo[3,2-b]pyridine-3-carboxamide]
< 1	COc1cc(-c2ccnc3c(C(=O)NC4CCN(C(=O)[C@H](C)O)CC4)c(C)[nH]c23)c(OCC2CC2)cc1F [Example F41, 7-[2-(Cyclopropylmethoxy)-4-fluoro-5-methoxyphenyl]-N-{1-[(2S)-2-hydroxypropanoyl]piperidin-4-yl}-2-methyl-1H-pyrrolo[3,2-b]pyridine-3-carboxamide]
< 1	COc1cc(-c2ccnc3c(C(=O)N[C@H]4CC[C@H](NC(=O)CO)CC4)c(C)[nH]c23)c(OCC2CC2)cc1F [Example F42, 7-[2-(Cyclopropylmethoxy)-4-fluoro-5-methoxyphenyl]-N-{trans-4-[(hydroxyacetyl)amino]cyclohexyl}-2-methyl-1H-pyrrolo[3,2-b]pyridine-3-carboxamide]
< 1	COc1cc(-c2ccnc3c(C(=O)N[C@H]4CC[C@H](NC(=O)[C@H](C)O)CC4)c(C)[nH]c23)c(OCC2CC2)cc1F [Example F43, 7-[2-(Cyclopropylmethoxy)-4-fluoro-5-methoxyphenyl]-N-(trans-4-{[(2S)-2-hydroxypropanoyl]amino}cyclohexyl)-2-methyl-1H-pyrrolo[3,2-b]pyridine-3-carboxamide]
< 1	COc1cc(-c2ccnc3c(C(=O)N[C@H]4CC[C@@H](NC(=O)CO)CC4)c(C)[nH]c23)c(OCC2CC2)cc1F [Example F44, 7-[2-(Cyclopropylmethoxy)-4-fluoro-5-methoxyphenyl]-N-{cis-4-[(hydroxyacetyl)amino]cyclohexyl}-2-methyl-1H-pyrrolo[3,2-b]pyridine-3-carboxamide]
< 1	COc1cc(-c2ccnc3c(C(=O)N[C@H]4CC[C@@H](NC(=O)[C@H](C)O)CC4)c(C)[nH]c23)c(OCC2CC2)cc1F [Example F45, 7-[2-(Cyclopropylmethoxy)-4-fluoro-5-methoxyphenyl]-N-(cis-4-{[abs.(2S)-2-hydroxypropanoyl]amino}cyclohexyl)-2-methyl-1H-pyrrolo[3,2-b]pyridine-3-carboxamide]
< 1	COc1cc(OCC2CC2)c(-c2ccnc3c(C(=O)NC4CCN(C(=O)CO)CC4)c(C)[nH]c23)cc1F [Example F50, 7-[2-(Cyclopropylmethoxy)-5-fluoro-4-methoxyphenyl]-N-(1-glycoloylpiperidin-4-yl)-2-methyl-1H-pyrrolo[3,2-b]pyridine-3-carboxamide]
< 1	COc1cc(OCC2CC2)c(-c2ccnc3c(C(=O)NC4CCN(C(=O)[C@H](C)O)CC4)c(C)[nH]c23)cc1F [Example F51, 7-[2-(Cyclopropylmethoxy)-5-fluoro-4-methoxyphenyl]-N-{1-[(2S)-2-hydroxypropanoyl]piperidin-4-yl}-2-methyl-1H-pyrrolo[3,2-b]pyridine-3-carboxamide]
< 1	COc1cc(OCC2CC2)c(-c2ccnc3c(C(=O)N[C@H]4CC[C@H](NC(=O)CO)CC4)c(C)[nH]c23)cc1F [Example F52, 7-[2-(Cyclopropylmethoxy)-5-fluoro-4-methoxyphenyl]-N-[trans-4-(glycoloylamino)cyclohexyl]-2-methyl-1H-pyrrolo[3,2-b]pyridine-3-carboxamide]
< 1	COc1cc(OCC2CC2)c(-c2ccnc3c(C(=O)N[C@H]4CC[C@H](NC(=O)[C@H](C)O)CC4)c(C)[nH]c23)cc1F [Example F53, 7-[2-(Cyclopropylmethoxy)-5-fluoro-4-methoxyphenyl]-N-(trans-4-{[(2S)-2-hydroxypropanoyl]amino}cyclohexyl)-2-methyl-1H-pyrrolo[3,2-b]pyridine-3-carboxamide]
< 1	COc1cc(OCC2CC2)c(-c2ccnc3c(C(=O)N[C@H]4CC[C@@H](NC(=O)CO)CC4)c(C)[nH]c23)cc1F [Example F54, 7-[2-(Cyclopropylmethoxy)-5-fluoro-4-methoxyphenyl]-N-[cis-4-(glycoloylamino)cyclohexyl]-2-methyl-1H-pyrrolo[3,2-b]pyridine-3-carboxamide]
